# Data as given in patent US6946253B2, “Herpes zinc finger motifs” (University Court of the University of Glasgow, priority 2000, dated 2005).
# Assays:
# [1] = system: baby hamster kidney BHK21/C13 cells; assay: Cytotoxicity, Trypan Blue exclusion staining; format: cell-based; settings: 100 μM (highest concentration), up to 4 days
# Protocol: Cytotoxicity. Both compounds azodicarbonamide (ADA, NSC 674447) and 2,2′,-dithiobisbenzamide (DIBA, NSC 654077) were dissolved at the appropriate concentration in 0.1% (v/v) dimethylsulphoxide (DMSO) in Eagle's modified medium. Confluent monolayers (2×10^6) of baby hamster kidney BHK21/C13 cells were incubated with various concentrations of either ADA or DIBA (1,10,100 μM) or as a control 0.1% (v/v) DMSO, and cell viability determined every day for 4 days by Trypan Blue exclusion staining (23).
# Determination or cytotoxicity of ADA and DIBA. In view of the distinctive sequence conservation of the IE63 zinc finger two previously known zinc-ejecting anti-HIV-1 compounds, 2,2′-dithiobisbenzamide (DIBA) and azodicarbonamide (ADA) were tested for their effect on herpesvirus. To separate any effect on cell viability from a specific effect on virus replication, the effect of incubating BHK21/C13 cells in various concentrations of ADA, DIBA, and 0.1% (v/v) DMSO as a control, for up to 4 days was determined. Even at the highest concentration used (100 μM) 95% of the cells were viable compared to untreated BHK21/C13 cells (data not shown). Indeed any cytotoxicity observed was due to the DMSO in which the drugs were dissolved, as the cytotoxicity was equally great in those cells incubated with only DMSO (data not shown).
# HSV-2 = assay: Plaque reduction assay in BHK21/C13 cells; format: cell-based, herpes simplex virus type 2; settings: HSV-2, plaque reduction assay
# Protocol: Plaque reduction assay. Confluent monolayers (4×10^6 cells) of BHK21/C13 cells were preincubated with the appropriate drug concentration, 0.1% DMSO(v/v) or mock treated as a control for 24 h and subsequently infected at a moi of 400 pfu/plate with either HSV-1 or HSV-2 and incubated for 48 h at 37° C. […] Tests of each drug concentration were performed in triplicate and the average of the 3 plates calculated. […]
# (§1) Plaquing Efficiency in the Presence of ADA and DIBA. To determine if the reduction in virus yield seen in the previous experiment was due to a virucidal effect, inhibition of virus entry (adsorption penetration) or intracellular replication, a plaque reduction assay was carried out. Here, the ability of the virus to plaque was measured. An effect on the stability of the virus particle or virus entry would lead to a reduction in the number of plaques compared to the control untreated plates for a given amount of virus. In contrast, an effect on intracellular virus replication would not lead to a significant reduction in plaques.
# HSV-2 strain HG52 = assay: Virus replication (virus yield) in BHK21/C13 cells; format: cell-based, herpes simplex virus type 2; settings: experiment 2 (Table 2), moi 5, 24 h pi
# Protocol: (§2) Virus replication. Semi-confluent monolayers of BHK21/C13 cells (2×10^6) were pre-incubated with the appropriate drug concentration, 0.1% DMSO (v/v) or mock treated as a control for 24 h and subsequently infected at a multiplicity of infection (moi) of 5 plaque forming units (pfu)/cell with either herpes simplex virus type 1 (HSV-1) strain 17 or HSV-2 strain HG52 and harvested 24 h post-infection (pi). The virus yield was determined by releasing the virus into the supernatant by sonication and titration on BHK21/C13 cells. Results were expressed as pfu/10^6 cells and % reduction in yield as compared to the untreated control (23).
# (§3) Antiviral effect of ADA and DIBA. Two experiments were carried out. In the first, the effect of varying concentrations of ADA and DIBA on the replication of HSV-1 was analysed. In the second, the effect on both HSV-1 and HSV-2 was determined.
# HSV-1 = assay: Plaque reduction assay in BHK21/C13 cells; format: cell-based, herpes simplex virus type 1; settings: HSV-1, plaque reduction assay
# Protocol: Plaque reduction assay. Confluent monolayers (4×10^6 cells) of BHK21/C13 cells were preincubated with the appropriate drug concentration, 0.1% DMSO(v/v) or mock treated as a control for 24 h and subsequently infected at a moi of 400 pfu/plate with either HSV-1 or HSV-2 and incubated for 48 h at 37° C. […] Tests of each drug concentration were performed in triplicate and the average of the 3 plates calculated. Results were expressed as pfu/plate and % of the number of plaques on the untreated control plates (23).
# as §1
# [2] = system: herpes simplex virus type 1 (HSV-1) strain 17; assay: Virus replication (virus yield) in BHK21/C13 cells; format: cell-based; settings: moi 5, 24 h pi
# Protocol: as §2, §3
# [3] = experiment 1 (Table 1), HSV-1, 1 μM
# [4] = experiment 1 (Table 1), HSV-1, 10 μM
# [5] = experiment 1 (Table 1), HSV-1, 100 μM
# [6] = experiment 2 (Table 2), HSV-1, 1 μM
# [7] = experiment 2 (Table 2), HSV-1, 10 μM
# [8] = experiment 2 (Table 2), HSV-1, 100 μM
smiles,measurement,setting,value
"NC(=O)N=NC(N)=O [ADA, azodicarbonamide]",cells viable compared to untreated BHK21/C13 cells,[1],95%
same,size of the plaques,HSV-2,reduction in the size of the plaques
same,% UNTREATED CONTROL (virus yield),"HSV-2 strain HG52; HSV-2, 1 μM",13%
same,VIRUS YIELD (pfu/10^6 BHK cells),"HSV-2 strain HG52; HSV-2, 1 μM",9.4 × 10^6 pfu/10^6 BHK cells
same,VIRUS YIELD (pfu/BHK cell),"HSV-2 strain HG52; HSV-2, 1 μM",9.4 pfu/BHK cell
same,% UNTREATED CONTROL (virus yield),"HSV-2 strain HG52; HSV-2, 10 μM",1.2%
same,VIRUS YIELD (pfu/10^6 BHK cells),"HSV-2 strain HG52; HSV-2, 10 μM",8.5 × 10^5 pfu/10^6 BHK cells
same,VIRUS YIELD (pfu/BHK cell),"HSV-2 strain HG52; HSV-2, 10 μM",0.85 pfu/BHK cell
same,VIRUS YIELD (pfu/10^6 BHK cells),"HSV-2 strain HG52; HSV-2, 100 μM",2.3 × 10^5 pfu/10^6 BHK cells
same,VIRUS YIELD (pfu/BHK cell),"HSV-2 strain HG52; HSV-2, 100 μM",0.23 pfu/BHK cell
same,size of the plaques,HSV-1,reduction in the size of the plaques
same,% UNTREATED CONTROL (virus yield),[2]; [3],76%
same,VIRUS YIELD (pfu/10^6 BHK cells),[2]; [3],6.1 × 10^8 pfu/10^6 BHK cells
same,VIRUS YIELD (pfu/BHK cell),[2]; [3],610 pfu/BHK cell
same,% UNTREATED CONTROL (virus yield),[2]; [4],19%
same,VIRUS YIELD (pfu/10^6 BHK cells),[2]; [4],1.5 × 10^8 pfu/10^6 BHK cells
same,VIRUS YIELD (pfu/BHK cell),[2]; [4],150 pfu/BHK cell
same,% UNTREATED CONTROL (virus yield),[2]; [5],11%
same,VIRUS YIELD (pfu/10^6 BHK cells),[2]; [5],9 × 10^6 pfu/10^6 BHK cells
same,VIRUS YIELD (pfu/BHK cell),[2]; [5],9.0 pfu/BHK cell
same,% UNTREATED CONTROL (virus yield),[2]; [6],15%
same,VIRUS YIELD (pfu/10^6 BHK cells),[2]; [6],9.3 × 10^7 pfu/10^6 BHK cells
same,VIRUS YIELD (pfu/BHK cell),[2]; [6],93 pfu/BHK cell
same,% UNTREATED CONTROL (virus yield),[2]; [7],1.4%
same,VIRUS YIELD (pfu/10^6 BHK cells),[2]; [7],8.5 × 10^6 pfu/10^6 BHK cells
same,VIRUS YIELD (pfu/BHK cell),[2]; [7],8.5 pfu/BHK cell
same,VIRUS YIELD (pfu/10^6 BHK cells),[2]; [8],1.2 × 10^6 pfu/10^6 BHK cells
same,VIRUS YIELD (pfu/BHK cell),[2]; [8],1.2 pfu/BHK cell
"NC(=O)c1ccccc1SSc1ccccc1C(N)=O [DIBA, 2,2′-dithiobisbenzamide]",cells viable compared to untreated BHK21/C13 cells,[1],95%
same,size of the plaques,HSV-2,reduction in the size of the plaques
same,% UNTREATED CONTROL (virus yield),"HSV-2 strain HG52; HSV-2, 1 μM",17%
same,VIRUS YIELD (pfu/10^6 BHK cells),"HSV-2 strain HG52; HSV-2, 1 μM",1.2 × 10^7 pfu/10^6 BHK cells
same,VIRUS YIELD (pfu/BHK cell),"HSV-2 strain HG52; HSV-2, 1 μM",12 pfu/BHK cell
same,% UNTREATED CONTROL (virus yield),"HSV-2 strain HG52; HSV-2, 10 μM",2%
same,VIRUS YIELD (pfu/10^6 BHK cells),"HSV-2 strain HG52; HSV-2, 10 μM",1.4 × 10^6 pfu/10^6 BHK cells
same,VIRUS YIELD (pfu/BHK cell),"HSV-2 strain HG52; HSV-2, 10 μM",1.4 pfu/BHK cell
same,VIRUS YIELD (pfu/10^6 BHK cells),"HSV-2 strain HG52; HSV-2, 100 μM",3.1 × 10^5 pfu/10^6 BHK cells
same,VIRUS YIELD (pfu/BHK cell),"HSV-2 strain HG52; HSV-2, 100 μM",0.31 pfu/BHK cell
same,size of the plaques,HSV-1,reduction in the size of the plaques
same,% UNTREATED CONTROL (virus yield),[2]; [3],85%
same,VIRUS YIELD (pfu/10^6 BHK cells),[2]; [3],6.8 × 10^8 pfu/10^6 BHK cells
same,VIRUS YIELD (pfu/BHK cell),[2]; [3],680 pfu/BHK cell
same,% UNTREATED CONTROL (virus yield),[2]; [4],20%
same,VIRUS YIELD (pfu/10^6 BHK cells),[2]; [4],1.6 × 10^8 pfu/10^6 BHK cells
same,VIRUS YIELD (pfu/BHK cell),[2]; [4],160 pfu/BHK cell
same,% UNTREATED CONTROL (virus yield),[2]; [5],2.5%
same,VIRUS YIELD (pfu/10^6 BHK cells),[2]; [5],2 × 10^7 pfu/10^6 BHK cells
same,VIRUS YIELD (pfu/BHK cell),[2]; [5],20 pfu/BHK cell
same,% UNTREATED CONTROL (virus yield),[2]; [6],20%
same,VIRUS YIELD (pfu/10^6 BHK cells),[2]; [6],1.2 × 10^8 pfu/10^6 BHK cells
same,VIRUS YIELD (pfu/BHK cell),[2]; [6],120 pfu/BHK cell
same,% UNTREATED CONTROL (virus yield),[2]; [7],1.6%
same,VIRUS YIELD (pfu/10^6 BHK cells),[2]; [7],9.6 × 10^6 pfu/10^6 BHK cells
same,VIRUS YIELD (pfu/BHK cell),[2]; [7],9.6 pfu/BHK cell
same,VIRUS YIELD (pfu/10^6 BHK cells),[2]; [8],1.9 × 10^6 pfu/10^6 BHK cells
same,VIRUS YIELD (pfu/BHK cell),[2]; [8],1.9 pfu/BHK cell
